According to patent US11384062B2 (CombiPhos Catalysts, Inc., priority 2017, dated 2022):

Assay: in vitro
Settings: for CLint scaled at 0.5 µM: pH 7.4, Clint
Protocol: Buffer solutions were prepared as follows: • a. Buffer A: 0.1 M monobasic potassium phosphate buffer containing 1.0 mM EDTA. • b. Buffer B: 0.1 M dibasic potassium phosphate buffer containing 1.0 mM EDTA. • c. Buffer C: 0.1 M potassium phosphate buffer containing 1.0 mM EDTA was adjusted to pH 7.4 by titrating 700 mL of Buffer B with Buffer A while monitoring with a pH meter. • 2. An NADPH stock solution (6 mM) was prepared by dissolving NADPH into Buffer C. • 3. Spiking solutions were prepared for the reference compound (ketanserin) and the test compounds as follows: • a. A 500 μM spiking solution of the reference compound (ketanserin) was generated by adding 10 μL of a 10 mM stock solution of ketanserin in DMSO into 190 μL acetonitrile. A 1.5 μM spiking solution in microsomes (0.75 mg/mL) was generated by adding 1.5 μL of the 500 μM spiking solution and 18.75 μL of 20 mg/mL rat liver microsomes into 479.75 μL of Buffer C while cooling with ice. • b. […] A 0.75 μM spiking solution in microsomes (0.75 mg/mL) was generated by adding 1.5 μL of the 250 μM spiking solution and 18.75 μL of 20 mg/mL rat liver microsomes into 479.75 μL of Buffer C while cooling with ice. • 4. 30 μL of 1.5 μM spiking solution containing 0.75 mg/mL microsomes solution was dispensed into assay plates designated for different time points (0 min, 5 min, 15 min, 30 min, and 45 min; or 0 min, 15 min, 30 min, 45 min, and 60 min as shown in Tables 1-5 below) while cooling with ice. • 5. For the 0 min time point assay plate, 135 μL of ACN containing IS followed immediately by 15 μL of the 6 mM NADPH stock solution were added to the wells of the 0 min assay plate. • 6. All assay plates other than the 0 min assay plate were pre-incubated at 37° C. for 5 min, and then 15 μL of the 6 mM NADPH stock solution was added to the wells of the assay plates to start the reaction and timing. At the appropriate time (5 min, 15 min, 30 min, 45 min, or 60 min), 135 μL of ACN containing IS was added to the wells of the corresponding assay plates, respectively, to stop the reaction. • 7. After quenching, the plates were shaken in a vibrator (IKA, MTS 2/4) for 10 min (600 rpm/min) and then centrifuged at 5594 g for 15 min (Thermo Multifuge×3R). • 8. After centrifugation, 50 μL of the supernatant from each well was transferred into a 96-well sample plate containing 50 μL of ultrapure water (Millipore, ZMQS50F01) for LC/MS analysis.

[1] = rat, microsomes, 0 h, 0.5 µM, pH 7.4
[2] = rat, microsomes, 0.5 µM, pH 7.4
[3] = rat, microsomes, 0.25 h, 0.5 µM, pH 7.4
[4] = rat, microsomes, 0.5 h, 0.5 µM, pH 7.4
[5] = rat, microsomes, 0.75 h, 0.5 µM, pH 7.4
[6] = rat, microsomes, 1 h, 0.5 µM, pH 7.4
[7] = rat liver microsomes, 0 min, Table 1 (Example 16)
[8] = rat liver microsomes, 0 min, Table 2 (Example 17)
[9] = rat liver microsomes, 0 min, Table 3 (Example 18)
[10] = rat liver microsomes, 0 min, Table 5 (Example 20)
[11] = rat liver microsomes, Table 1 (Example 16)
[12] = rat liver microsomes, Table 2 (Example 17)
[13] = rat liver microsomes, Table 3 (Example 18)
[14] = rat liver microsomes, Table 5 (Example 20)
[15] = rat liver microsomes, 15 min, Table 1 (Example 16)
[16] = rat liver microsomes, 15 min, Table 2 (Example 17)
[17] = rat liver microsomes, 15 min, Table 3 (Example 18)
[18] = rat liver microsomes, 15 min, Table 5 (Example 20)
[19] = rat liver microsomes, 30 min, Table 1 (Example 16)
[20] = rat liver microsomes, 30 min, Table 2 (Example 17)
[21] = rat liver microsomes, 30 min, Table 3 (Example 18)
[22] = rat liver microsomes, 30 min, Table 5 (Example 20)
[23] = rat liver microsomes, 45 min, Table 1 (Example 16)
[24] = rat liver microsomes, 45 min, Table 2 (Example 17)
[25] = rat liver microsomes, 45 min, Table 3 (Example 18)
[26] = rat liver microsomes, 45 min, Table 5 (Example 20)

[2H]c1c([2H])c(-n2cc3cccc(C(N)=O)c3n2)c([2H])c([2H])c1C1C([2H])NC([2H])C([2H])C1[2H] (centres unmarked) [Example 6]
Percent Remaining (%) 0 min [1]: 100%
Percent Remaining (%) 5 min [2]: 112%
Percent Remaining (%) 15 min [3]: 100%
Percent Remaining (%) 30 min [4]: 88.27%
Percent Remaining (%) 45 min [5]: 85.02%
CLint scaled at 0.5 µM (rat, microsomes): 18.8 mL/min/kg
half-life at 0.5 µM (rat, microsomes, pH 7.4, T1/2): 2.2 h

[2H]c1c([2H])c(C2([2H])CCCNC2[2H])c([2H])c([2H])c1-n1cc2cccc(C(N)=O)c2n1 (centres unmarked) [Example 9, 2-(4-(piperidin-3-yl-2,3-d2)phenyl-2,3,5,6-d4)-2H-indazole-7-carboxamide]
increase in rat liver microsome metabolic stability (rat, 0.5 µM, pH 7.4): 64%
Percent Remaining (%) 0 min [1]: 100.00%
Percent Remaining (%) 15 min [3]: 98.91%
Percent Remaining (%) 30 min [4]: 83.70%
Percent Remaining (%) 45 min [5]: 79.62%
Percent Remaining (%) 60 min [6]: 75.27%
CLint scaled at 0.5 µM (rat, microsomes): 18.8 mL/min/kg
half-life at 0.5 µM (rat, microsomes, pH 7.4, T1/2): 2.21 h

[2H]c1c([2H])c(-n2cc3cccc(C(N)=O)c3n2)c([2H])c([2H])c1C1CCCNC1 (centres unmarked) [Example 8, 2-(4-(piperidin-3-yl)phenyl-2,3,5,6-d4)-2H-indazole-7-carboxamide]
Percent Remaining (%) 0 min [1]: 100.00%
Percent Remaining (%) 15 min [3]: 91.49%
Percent Remaining (%) 30 min [4]: 79.13%
Percent Remaining (%) 45 min [5]: 80.74%
Percent Remaining (%) 60 min [6]: 56.02%
CLint scaled at 0.5 µM (rat, microsomes): 30.7 mL/min/kg
half-life at 0.5 µM (rat, microsomes, pH 7.4, T1/2): 1.35 h

[2H]c1c([2H])c(-n2nc3c(C(N)=O)cccc3c2[2H])c([2H])c([2H])c1[C@@H]1CCCNC1 [Example 15, (S)-2-(4-(piperidin-3-yl)phenyl-2,3,5,6-d4)-2H-indazole-3-d-7-carboxamide]
Percent Remaining (%) 0 min [1]: 100.00%
Percent Remaining (%) 15 min [3]: 77.88%
Percent Remaining (%) 30 min [4]: 67.35%
Percent Remaining (%) 45 min [5]: 56.14%
Percent Remaining (%) 60 min [6]: 44.60%
CLint scaled at 0.5 µM (rat, microsomes): 46.4 mL/min/kg
half-life at 0.5 µM (rat, microsomes, pH 7.4, T1/2): 0.892 h

[2H]c1c([2H])c(C2([2H])C([2H])([2H])NC([2H])([2H])C([2H])([2H])C2([2H])[2H])c([2H])c([2H])c1-n1cc2cccc(C(N)=O)c2n1 (centres unmarked) [Example 2, 2-(4-(piperidin-3-yl-2,2,3,4,4,5,5,6,6-d9)phenyl-2,3,5,6-d4)-2H-indazole-7-carboxamide]
Percent Remaining (%) 0 min [1]: 100.00%
Percent Remaining (%) 15 min [3]: 93.04%
Percent Remaining (%) 30 min [4]: 80.95%
Percent Remaining (%) 45 min [5]: 75.60%
Percent Remaining (%) 60 min [6]: 69.05%
CLint scaled at 0.5 µM (rat, microsomes): 22.7 mL/min/kg
half-life at 0.5 µM (rat, microsomes, pH 7.4, T1/2): 1.83 h

[2H]C1NC([2H])C(c2ccc(-n3cc4cccc(C(N)=O)c4n3)cc2)C([2H])C1[2H] (centres unmarked) [Example 7, 2-(4-(piperidin-3-yl-2,4,5,6-d4)phenyl)-2H-indazole-7-carboxamide]
Percent Remaining (%) 0 min [1]: 100%
Percent Remaining (%) 5 min [2]: 112.62%
Percent Remaining (%) 15 min [3]: 94.47%
Percent Remaining (%) 30 min [4]: 84.9%
Percent Remaining (%) 45 min [5]: 83.06%
CLint scaled at 0.5 µM (rat, microsomes): 21.1 mL/min/kg
half-life at 0.5 µM (rat, microsomes, pH 7.4, T1/2): 1.96 h

[2H]C1NC([2H])C([2H])(c2ccc(-n3cc4cccc(C(N)=O)c4n3)cc2)C([2H])C1[2H] (centres unmarked) [Example 5, 2-(4-(piperidin-3-yl-2,3,4,5,6-d5)phenyl)-2H-indazole-7-carboxamide]
Percent Remaining (%) 0 min [1]: 100.00%
Percent Remaining (%) 15 min [3]: 108.00%
Percent Remaining (%) 30 min [4]: 89.02%
Percent Remaining (%) 45 min [5]: 81.33%
Percent Remaining (%) 60 min [6]: 80.31%
CLint scaled at 0.5 µM (rat, microsomes): 17.2 mL/min/kg
half-life at 0.5 µM (rat, microsomes, pH 7.4, T1/2): 2.4 h

O=C(c1ccc(F)cc1)C1CCN(CCn2c(=O)[nH]c3ccccc3c2=O)CC1 [ketanserin]
Percent Remaining (%) 0 min [7]: 100.00%
Percent Remaining (%) 0 min [8]: 100%
Percent Remaining (%) 0 min [9]: 100.00%
Percent Remaining (%) 0 min (rat liver microsomes, 0 min, Table 4 (Example 19)): 100.00%
Percent Remaining (%) 0 min [10]: 100.00%
Percent Remaining (%) 5 min [11]: 65.84%
Percent Remaining (%) 5 min [12]: 94.13%
Percent Remaining (%) 5 min [13]: 78.33%
Percent Remaining (%) 5 min (rat liver microsomes, Table 4 (Example 19)): 78.33%
Percent Remaining (%) 5 min [14]: 82.83%
Percent Remaining (%) 15 min [15]: 41.07%
Percent Remaining (%) 15 min [16]: 61.07%
Percent Remaining (%) 15 min [17]: 45.04%
Percent Remaining (%) 15 min (rat liver microsomes, 15 min, Table 4 (Example 19)): 45.04%
Percent Remaining (%) 15 min [18]: 51.29%
Percent Remaining (%) 30 min [19]: 17.68%
Percent Remaining (%) 30 min [20]: 32.18%
Percent Remaining (%) 30 min [21]: 21.55%
Percent Remaining (%) 30 min (rat liver microsomes, 30 min, Table 4 (Example 19)): 21.55%
Percent Remaining (%) 30 min [22]: 25.82%
Percent Remaining (%) 45 min [23]: 9.13%
Percent Remaining (%) 45 min [24]: 21.24%
Percent Remaining (%) 45 min [25]: 10.67%
Percent Remaining (%) 45 min (rat liver microsomes, 45 min, Table 4 (Example 19)): 10.67%
Percent Remaining (%) 45 min [26]: 15.08%
CLint scaled at 0.5 µM (rat, pooled rat liver microsomes, rat liver microsomes, Table 1 (Example 16)): 188 mL/min/kg
CLint scaled at 0.5 µM (rat, pooled rat liver microsomes, rat liver microsomes, Table 2 (Example 17)): 142 mL/min/kg
CLint scaled at 0.5 µM (rat, pooled rat liver microsomes, rat liver microsomes, Table 3 (Example 18)): 179 mL/min/kg
CLint scaled at 0.5 µM (rat, pooled rat liver microsomes, rat liver microsomes, Table 4 (Example 19)): 179 mL/min/kg
CLint scaled at 0.5 µM (rat, pooled rat liver microsomes, rat liver microsomes, Table 5 (Example 20)): 154 mL/min/kg
half-life at 0.5 µM (rat, pooled rat liver microsomes, pH 7.4, T1/2, rat liver microsomes, Table 1 (Example 16)): 0.22 h
half-life at 0.5 µM (rat, pooled rat liver microsomes, pH 7.4, T1/2, rat liver microsomes, Table 2 (Example 17)): 0.292 h
half-life at 0.5 µM (rat, pooled rat liver microsomes, pH 7.4, T1/2, rat liver microsomes, Table 3 (Example 18)): 0.231 h
half-life at 0.5 µM (rat, pooled rat liver microsomes, pH 7.4, T1/2, rat liver microsomes, Table 4 (Example 19)): 0.231 h
half-life at 0.5 µM (rat, pooled rat liver microsomes, pH 7.4, T1/2, rat liver microsomes, Table 5 (Example 20)): 0.269 h

NC(=O)c1cccc2cn(-c3ccc([C@@H]4CCCNC4)cc3)nc12 (racemic) [racemic niraparib]
Percent Remaining (%) 0 min [7]: 100.00%
Percent Remaining (%) 0 min [8]: 100%
Percent Remaining (%) 0 min [9]: 100.00%
Percent Remaining (%) 0 min [10]: 100.00%
Percent Remaining (%) 5 min [12]: 116.67%
Percent Remaining (%) 15 min [15]: 89.16%
Percent Remaining (%) 15 min [16]: 95.83%
Percent Remaining (%) 15 min [17]: 92.47%
Percent Remaining (%) 15 min [18]: 77.23%
Percent Remaining (%) 30 min [19]: 75.88%
Percent Remaining (%) 30 min [20]: 83.18%
Percent Remaining (%) 30 min [21]: 65.45%
Percent Remaining (%) 30 min [22]: 65.45%
Percent Remaining (%) 45 min [23]: 69.11%
Percent Remaining (%) 45 min [24]: 81.48%
Percent Remaining (%) 45 min [25]: 51.57%
Percent Remaining (%) 45 min [26]: 53.43%
Percent Remaining (%) 60 min (rat liver microsomes, 60 min, Table 1 (Example 16)): 60.43%
Percent Remaining (%) 60 min (rat liver microsomes, 60 min, Table 3 (Example 18)): 50.17%
Percent Remaining (%) 60 min (rat liver microsomes, 60 min, Table 5 (Example 20)): 42.23%
Clint [11]: 30.15 mL/min/kg
T1/2 [11]: 1.373 h
Clint [12]: 24.43 mL/min/kg
T1/2 [12]: 1.6945 h
Clint [13]: 46.91 mL/min/kg
T1/2 [13]: 0.8825 h
Clint [14]: 50.00 mL/min/kg
T1/2 [14]: 0.828 h
